“And” between values parts separate entries of the source, which are not always exact repeats. Equal entries are not always repeated.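 Compound exposure: 48 hours, 5 concentrations, 96-well plates. Here, GI50 denotes the concentration required for 50% inhibition of growth. Definition used: TGI = concentration required for complete inhibition of growth.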

The source of these data is PubChem BioAssay (NCI).

Common to all, as to experiment: growth of human tumour cells (NCI), 48 h
Test [1] has as its system HCT-116 colon.
Test [2] relates to RPMI-8226 leukemia.
Test [3] relates to NCI-H23 lung.
Test [4] concerns HCC-2998 colon.
Test [5] concerns HOP-62 NSCLC.
Test [6] deals with CCRF-CEM leukemia.
Test [7] concerns SNB-75 CNS.
Test [8] deals with SK-MEL-2 melanoma.
In test [9] the test system is SNB-19 CNS.
The subject of test [10] is OVCAR-8 ovarian.

In the case of `Nc1ncnc2c1c(-c1ccc(Oc3ccccc3)cc1)nn2C[C@@H]1SSC[C@@H]1O`, the GI50 is 0.101 µM in [1]; 2.86 µM in test [2]; 0.333 µM in [3]; 0.479 µM in test [4]; 0.202 µM in [5]; 0.061 µM in test [6]. The GI50 in test [7] is 1.78 µM; in test [8] it was 0.212 µM; in test [9], 1.03 µM; in test [10], 0.36 µM. Also, the TGI is 1.64 µM in [1]; 14.6 µM in [2]; 7.93 µM in test [3]; 14.8 µM in test [4]; 1.24 µM in test [5]; above 59.7 µM in test [6]. Besides, the TGI in [7] was 7.56 µM; in test [8], 0.502 µM; in [9] it was 14 µM; in test [10] it was 12.2 µM.

In the case of `O=C(O)Cn1ccnc1[N+](=O)[O-]`, the TGI in test [1], in test [2], in [3], in test [4], in test [5] and in test [6] was above 100 µM in each case. For the same molecule, the TGI in [7], in [8], in [9] and in test [10] was above 100 µM in each case.

As to `COc1cc2cc(Oc3ccc(NC(=O)c4cccc5c4OCCO5)cc3)c(C)nc2cc1OC`, the GI50 in [1] is 3.42 µM; in test [2], 2.98 µM; in test [3], 8.14 µM; in test [4], 5.5 µM; in test [5], 9.13 µM; in test [6] it was 4.18 µM. Also, the GI50 in test [7] is 4.06 µM; in test [8], 32.9 µM; in [9] it was 15.5 µM; in [10] it was 3.68 µM. For the same molecule, the TGI in test [1] was above 100 µM; in test [2] it was above 100 µM; in test [3], above 100 µM; in [4], above 100 µM; in test [5] it was 94.6 µM; in test [6], above 100 µM. Moreover, the TGI in test [7] is 53.1 µM; in test [8], above 100 µM; in test [9], above 100 µM; in [10], 29.8 µM.

Turning to `Fc1cc(-c2nnc3n2N=C(c2ccc(Cl)cc2Cl)CS3)c(Cl)cc1Cl`, the GI50 is 25.4 µM in test [1]; 25.3 µM in test [2]; 82.5 µM in test [3]; 35 µM in test [4]; 44.2 µM in test [5]; 27.6 µM in [6]. In addition, the GI50 in test [7] is above 100 µM; in [8], above 100 µM; in test [9], 25.4 µM; in test [10] it was 57.3 µM. Also, the TGI in test [1] was 68.7 µM; in test [2] it was 95.7 µM; in test [3], above 100 µM; in test [4] it was above 100 µM; in test [5] it was above 100 µM; in test [6] it was above 100 µM. The TGI in test [7], in [8], in [9] and in test [10] was above 100 µM each time.

Take `COc1cc2cccc(N=Cc3c(Br)ccc(OC)c3OC(C)C)c2cc1OC`: the TGI in [1] was 96 µM; in test [2], 63.7 µM; in [3], above 100 µM; in test [4] it was above 100 µM; in test [5], above 100 µM; in test [6] it was 90.4 µM. The TGI in test [7] is 89.3 µM; in [8], above 100 µM; in [9], above 100 µM; in test [10], above 100 µM.

Regarding `CC(C)(CO)N=Cc1ccccc1[O-].CC(C)(CO)N=Cc1ccccc1[O-].[Co+2]`, the GI50 in test [1] was 69.8 µM; in [2], 30.2 µM; in [3], 72.7 µM; in test [4], 75.4 µM; in [5], above 100 µM; in test [6], 5.86 µM. Also, the GI50 in test [7] is above 86.4 µM; in test [8], above 76.5 µM; in test [9], above 100 µM; in test [10] it was above 100 µM. Moreover, the TGI in test [1] is above 100 µM; in test [2] it was above 93 µM; in test [3], above 100 µM; in test [4], above 100 µM; in test [5], above 100 µM; in test [6], 68.2 µM. In addition, the TGI in test [7], in test [8], in test [9] and in test [10] was above 100 µM each time.

Consider `O=C(Cc1ccc(/C=C/C(=O)c2ncc[nH]2)cc1)Nc1ccc(C(F)(F)F)cc1`, for which the GI50 in test [1] is 0.694 µM; in test [2], 0.78 µM; in test [3], 3.42 µM; in test [4] it was 3.97 µM; in test [5], 4.8 µM; in [6] it was 1.55 µM. Also, the GI50 in [7] is 3.97 µM; in test [8], 7.09 µM; in [9] it was 2.79 µM; in test [10], 7.99 µM. The TGI was 1.74 µM in test [1]; 1.83 µM in [2]; 9.26 µM in test [3]; 8.61 µM in [4]; 12 µM in test [5]; above 33.3 µM in test [6]. Also, the TGI in test [7] is 9.12 µM; in test [8], 16.7 µM; in [9], 7.75 µM; in test [10], above 33.3 µM.

Consider `CN(C)CCCC1(c2ccc(F)cc2)OCc2cc(-c3cncc4ccccc34)ccc21` (configuration not stated), for which the GI50 was 2.94 µM in test [1]; 2.51 µM in test [2]; 5.73 µM in test [3]; 1.84 µM in test [4]; 3.8 µM in [5]; 3.45 µM in test [6]. In addition, the GI50 in test [7] was 1.66 µM; in test [8], 2.14 µM; in test [9], 2.35 µM; in test [10] it was 4.48 µM. The TGI in [1] is 11 µM; in test [2], 5.96 µM; in [3], 20.1 µM; in test [4], 3.71 µM; in [5] it was 16.8 µM; in [6], 11.6 µM. Also, the TGI in test [7] came to 6.86 µM; in [8], 4.74 µM; in test [9], 7.4 µM; in [10], 19.8 µM.

As to `O=C(CCN1CCCC1)Nc1ccc2c(Nc3ccccc3)c3ccccc3nc2c1`, the GI50 is 0.611 µM in [1]; 0.48 µM in [2]; 0.383 µM in test [3]; 0.733 µM in test [4]; 0.404 µM in [5]; 0.142 µM in test [6]. Also, the GI50 is 1.09 µM in test [7], 1.69 µM in test [8], 0.432 µM in test [9] and 0.851 µM in test [10]. In addition, the TGI was determined as 2.2 µM in test [1]; 1.65 µM in test [2]; 2 µM in [3]; 2.29 µM in [4]; 2.51 µM in test [5]; 2.14 µM in [6]. For the same molecule, the TGI in test [7] amounted to 2.33 µM; in [8] it was 3.56 µM; in test [9], 2.92 µM; in [10], 5.51 µM.

As for `O=C(O)C1C(C(=O)O)C2(Cl)C(Cl)=C(Cl)C1(Cl)C2(Cl)Cl.[Cd]` (configuration not stated), the GI50 is 17.5 µM in test [1]; 6.64 µM in test [2]; 2.62 µM in test [3]; 22.6 µM in test [4]; 22.7 µM in test [5]; 16.5 µM in test [6]. Also, the GI50 in test [7] is 10.7 µM; in test [8], 9.22 µM; in test [9], 40 µM; in test [10], 28.8 µM. The TGI was found to be 32.5 µM in test [1]; 48.4 µM in test [2]; 9.17 µM in [3]; 47.7 µM in test [4]; 48.6 µM in test [5]; 61.4 µM in test [6]. Also, the TGI is 26.4 µM in [7], 26.8 µM in test [8], above 100 µM in test [9] and above 86.6 µM in test [10].

As to `c1ccc(NC[Si]23OCCN(CCO2)CCO3)cc1`, the TGI in test [1], in test [2], in test [3], in test [4], in [6] and in [7] was above 100 µM throughout. The TGI in [8], in test [9] and in [10] was above 100 µM in each case.

On to `Cn1cc(CO)c2ccccc21`, for which the GI50 in test [1] was 26.9 µM; in [2] it was 99.9 µM; in [3], 48.2 µM; in test [4], above 100 µM; in test [5], 73.8 µM; in test [6], above 100 µM. Also, the GI50 in test [7] was 27.6 µM; in test [8] it was 36.2 µM; in test [9], above 100 µM; in test [10], above 100 µM. Also, the TGI in test [1], in test [2], in [3], in test [4], in [5] and in test [6] was above 100 µM in each case. The TGI in test [7], in test [8], in test [9] and in test [10] was above 100 µM in each case.

Take `CN(C)C(=O)SC1=C(c2c(Cl)cccc2Cl)C(=O)c2ccccc21`: the GI50 was 1.75 µM in [1]; 2.2 µM in test [2]; 7.14 µM in test [3]; 15.6 µM in [4]; 18.7 µM in test [5]; 2.67 µM in test [6]. The GI50 is 7.94 µM in test [7], 7.12 µM in [8], 15.8 µM in test [9] and 6.38 µM in test [10]. For the same molecule, the TGI in test [1] stood at 3.28 µM; in test [2], 5.84 µM; in [3], 19 µM; in [4] it was 29.2 µM; in test [5] it was 36.7 µM; in [6] it was 9.27 µM. Moreover, the TGI in test [7] stood at 23.9 µM; in test [8], 13.7 µM; in [9] it was 29.4 µM; in test [10], 17.1 µM.

For the molecule `O=c1[nH]c2cc(Cl)c(Cl)cc2n2cc3ccccc3c12`, the GI50 in test [1] was 21 µM; in test [2], 22.3 µM; in [3], 17.2 µM; in [4], 0.813 µM; in test [6] it was 22.1 µM; in [7], 21.6 µM. Moreover, the values for the GI50 in [8], in test [9] and in test [10] were 24.9 µM, 21.6 µM and 18.4 µM, respectively. The TGI was 35.3 µM in [1]; 49.2 µM in [2]; 30.9 µM in [3]; 18.6 µM in test [4]; 48.9 µM in [6]; 53.3 µM in [7]. For the same molecule, the TGI in test [8] turned out to be 54 µM; in [9], 56.6 µM; in [10] it was 32.4 µM.

For `CC(=O)Oc1ccc(C2(c3ccc(OC(C)=O)cc3)C(=O)Nc3ccccc32)cc1`, the GI50 in test [1] was 34.1 µM and 25.8 µM; in [2], 20.5 µM and 17.6 µM; in test [3] it was 9.3 µM and 19.3 µM; in [4], 29.7 µM and 23.1 µM; in test [5] it was 34.7 µM and 35.1 µM; in test [6] it was 25.7 µM and 28.6 µM. Further, the GI50 was 17.2 µM and 23.8 µM in test [7]; 30.4 µM and 52.8 µM in [8]; 42.9 µM and > 61.1 µM in test [9]; 0.292 µM and 0.408 µM in test [10]. The TGI was above 100 µM in test [1]; above 93.2 µM in test [2]; above 100 µM in test [3]; above 100 µM in test [4]; above 100 µM in [5]; > 100 µM and 99.3 µM in test [6]. In addition, the TGI is 59 µM and > 79.9 µM in test [7]; 96.9 µM and > 100 µM in test [8]; above 100 µM in test [9]; above 100 µM in test [10].

With `O=C(Nc1ccc(Cl)cc1)Nc1ccccc1CNc1nc(Nc2ccc(OCCN3CCCC3)cc2)ncc1Cl`, the GI50 in [1] is 0.927 µM; in test [2], 1.24 µM; in [3], 2.53 µM; in [4], 1.22 µM; in test [5], 1.28 µM; in test [6] it was 1.32 µM. Moreover, the GI50 in test [7] is 2.1 µM; in test [8], 8.99 µM; in [9] it was 2.5 µM; in test [10], 1.25 µM. The TGI is 1.85 µM in test [1]; 3.19 µM in test [2]; 10 µM in [3]; 3.38 µM in [4]; 3.88 µM in test [5]; 3.43 µM in [6]. In addition, the TGI in test [7] was 9.28 µM; in test [8], 17.4 µM; in test [9] it was 11.6 µM; in test [10], 3.31 µM.
